Test [1] relates to Mus musculus. Briefly: Tested for antiTrypanosomal activity against Trypanosoma rhodesiense in mice at dose of 20 mg/kg expressed as mean survival time (MST) or cures. It is filed as functional.
The test system of test [2] is Mus musculus. Briefly: Tested for antiTrypanosomal activity against Trypanosoma rhodesiense in mice at dose of 160 mg/kg expressed as mean survival time (MST) or cures. It is filed as functional.
Test [3] deals with Mus musculus. Briefly: Tested for antiTrypanosomal activity against Trypanosoma rhodesiense in mice at dose of 10 mg/kg expressed as mean survival time (MST) or cures. It is filed as functional.
In test [4] the test system is Mus musculus. In words: Tested for antiTrypanosomal activity against Trypanosoma rhodesiense in mice at dose of 80 mg/kg expressed as mean survival time (MST) or cures. The format is functional.
Test [5] relates to Mus musculus. Briefly: Tested for antiTrypanosomal activity against Trypanosoma rhodesiense in mice at dose of 320 mg/kg expressed as mean survival time (MST) or cures. It is filed as functional.
For test [6], the system named is Mus musculus. Briefly: Tested for antiTrypanosomal activity against Trypanosoma rhodesiense in mice at dose of 40 mg/kg expressed as mean survival time (MST) or cures. The format is functional.
The test system of test [7] is Mus musculus. In words: Tested for antiTrypanosomal activity against Trypanosoma rhodesiense in mice at dose of 5 mg/kg expressed as mean survival time (MST) or cures. It is filed as functional.
The test system of test [8] is Mus musculus. In words: Tested for antiTrypanosomal activity against Trypanosoma rhodesiense in mice at dose of 640 mg/kg expressed as mean survival time (MST) or cures, T - toxic death. The format is functional, organism-based. The arrangement: dose 640 mg/kg.
The subject of test [9] is Mus musculus. Briefly: Tested for antiTrypanosomal activity against Trypanosoma rhodesiense in mice at dose of 160 mg/kg expressed as mean survival time (MST) or cures T - toxic death. The format is functional, organism-based. The arrangement: dose 160 mg/kg.
In test [10] the test system is Mus musculus. Briefly: Tested for antiTrypanosomal activity against Trypanosoma rhodesiense in mice at dose of 1.25 mg/kg expressed as mean survival time (MST) or cures. It is filed as functional.
In test [11] the test system is Mus musculus. Briefly: Tested for antiTrypanosomal activity against Trypanosoma rhodesiense in mice at dose of 2.5 mg/kg expressed as mean survival time (MST) or cures. It is filed as functional.
The subject of test [12] is Mus musculus. Briefly: Tested for antiTrypanosomal activity against Trypanosoma rhodesiense in mice at dose of 320 mg/kg expressed as mean survival time (MST) or cures T - toxic death. The format is functional, organism-based. The arrangement: dose 320 mg/kg.
The subject of test [13] is Mus musculus. Briefly: Tested for antiTrypanosomal activity against Trypanosoma rhodesiense in mice at dose of 106 mg/kg expressed as mean survival time (MST) or cures T - toxic death. The format is functional, organism-based. The arrangement: dose 106 mg/kg.
Test [14] relates to Mus musculus. Briefly: Tested for antiTrypanosomal activity against Trypanosoma rhodesiense in mice at dose of 424 mg/kg expressed as mean survival time (MST) or cures T - toxic death. The format is functional, organism-based. The arrangement: dose 424 mg/kg.
In test [15] the test system is Mus musculus. In words: Tested for antiTrypanosomal activity against Trypanosoma rhodesiense in mice at dose of 26.5 mg/kg expressed as mean survival time (MST) or cures T - toxic death. The format is functional, organism-based. The arrangement: dose 26.5 mg/kg.
Test [16] concerns Mus musculus. In words: Tested for antiTrypanosomal activity against Trypanosoma rhodesiense in mice at dose of 212 mg/kg expressed as mean survival time (MST) or cures. It is filed as functional.
The test system of test [17] is Mus musculus. In words: Tested for antitrypanosomal activity against trypanosoma rhodesiense in mice at dose of 424 mg/kg expressed as mean survival time (MST) or cures. The format is functional.
Test [18] relates to Mus musculus. In words: Tested for antiTrypanosomal activity against Trypanosoma rhodesiense in mice at dose of 106 mg/kg expressed as mean survival time (MST) or cures. It is filed as functional.
Test [19] deals with Mus musculus. Briefly: Tested for antiTrypanosomal activity against Trypanosoma rhodesiense in mice at dose of 3.3 mg/kg expressed as mean survival time (MST) or cures. It is filed as functional.
Test [20] deals with Mus musculus. In words: Tested for antiTrypanosomal activity against Trypanosoma rhodesiense in mice at dose of 13.3 mg/kg expressed as mean survival time (MST) or cures. It is filed as functional.
For test [21], the system named is Mus musculus. Briefly: Tested for antitrypanosomal activity against trypanosoma rhodesiense in mice at dose of 53 mg/kg expressed as mean survival time (MST) or cures. The format is functional.
For test [22], the system named is Mus musculus. Briefly: Tested for antiTrypanosomal activity against Trypanosoma rhodesiense in mice at dose of 26.5 mg/kg expressed as mean survival time (MST) or cures. It is filed as functional.
The test system of test [23] is Mus musculus. Briefly: Tested for antiTrypanosomal activity against Trypanosoma rhodesiense in mice at dose of 6.6 mg/kg expressed as mean survival time (MST) or cures. It is filed as functional.
The test system of test [24] is Mus musculus. Briefly: Tested for antiTrypanosomal activity against Trypanosoma rhodesiense in mice at dose of 640 mg/kg expressed as mean survival time (MST) or cures. It is filed as functional.
The test system of test [25] is Mus musculus. Briefly: Tested for antiTrypanosomal activity against Trypanosoma rhodesiense in mice at dose of 53 mg/kg expressed as mean survival time (MST) or cures. It is filed as functional.
Test [26] has as its system Mus musculus. In words: Tested for antiTrypanosomal activity by screening against Trypanosoma rhodesiense in mice at dose of 424 mg/kg expressed as mean survival time (MST) or cures T - toxic death. The arrangement: dose 424 mg/kg. It is filed as functional, organism-based.

On to `Cl.Cl.c1cc(-c2ccc(-c3ccc(C4=NCCN4)cc3)nn2)ccc1C1=NCCN1`, for which the “Delta MST” value in the test with Mus musculus [1] was 1.1 days; in the test on Mus musculus [3], 0.3 days; in the test with Mus musculus [6], 1.1 days. Besides, the Cures in the test on Mus musculus [2] came to 3; in the test with Mus musculus [4], 1; in the test with Mus musculus [5] it was 5.
As to `Cl.Cl.c1cc(-c2cnc(-c3ccc(C4=NCCCN4)cc3)o2)ccc1C1=NCCCN1`, the Cures turned out to be 5 in the test with Mus musculus [1]; 3 in the test with Mus musculus [7]; 5 in the test with Mus musculus [3]; 2 in the test with Mus musculus [4]; 3 with Mus musculus [11]; 5 in the test with Mus musculus [6]. For the same compound, the “Delta MST” value is “Toxic death” with Mus musculus [8], “Toxic death” in the test on Mus musculus [9], 2.7 days in the test with Mus musculus [10] and “Toxic death” with Mus musculus [12].
Regarding `Cl.Cl.c1cc(-c2ccc(-c3ccc(C4=NCCCN4)cc3)nn2)ccc1C1=NCCCN1`, the Cures in the test with Mus musculus [1] came out at 4; in the test on Mus musculus [3] it was 1; with Mus musculus [4], 1; with Mus musculus [6], 4. The “Delta MST” value in the test on Mus musculus [13] was “Toxic death”.
Turning to `Cl.Cl.c1cc(-c2nnc(-c3ccc(C4=NCCN4)cc3)o2)ccc1C1=NCCN1`, the “Delta MST” value is “Toxic death” in the test on Mus musculus [8], 1 days with Mus musculus [2] and 0.8 days in the test with Mus musculus [6].
Regarding `Cl.Cl.c1cc(-c2nnc(-c3ccc(C4=NCCCN4)cc3)s2)ccc1C1=NCCCN1`, the “Delta MST” value was “Toxic death” in the test with Mus musculus [14], “Toxic death” with Mus musculus [13], “Toxic death” in the test on Mus musculus [15] and 1.1 days in the test with Mus musculus [6].
As for `Cl.Cl.N=C(N)c1ccc(-c2nnc(-c3ccc(C(=N)N)cc3)s2)cc1`, the Cures is recorded as 5 with Mus musculus [16]; 2 in the test on Mus musculus [17]; 5 in the test on Mus musculus [18]; 3 in the test with Mus musculus [19]; 5 in the test on Mus musculus [20]; 5 in the test on Mus musculus [21]. Besides, the Cures in the test with Mus musculus [22] is on record as 5; in the test on Mus musculus [23], 4. The “Delta MST” value in the test with Mus musculus [10] is 2 days.
With `Cl.Cl.N=C(N)c1ccc(-c2nnc(-c3ccc(C(=N)N)cc3)o2)cc1`, the “Delta MST” value in the test with Mus musculus [8] is “Toxic death”; with Mus musculus [2] it was 0.8 days; in the test on Mus musculus [6] it was 0.8 days.
Take `Cl.Cl.c1cc(-c2nnc(-c3ccc(C4=NCCCN4)cc3)o2)ccc1C1=NCCCN1`: the “Delta MST” value in the test with Mus musculus [14] is “Toxic death”; in the test on Mus musculus [13] it was “Toxic death”; with Mus musculus [23], 1.3 days. Moreover, the Cures came out at 1 in the test with Mus musculus [20] and 5 with Mus musculus [22].
`Cl.Cl.N=C(N)c1ccc(-c2cnc(-c3ccc(C(=N)N)cc3)o2)cc1`: the Cures with Mus musculus [1], in the test on Mus musculus [7], with Mus musculus [2], with Mus musculus [3], with Mus musculus [4] and with Mus musculus [5] was 5 each time. In addition, the figures for the Cures with Mus musculus [11], in the test with Mus musculus [24] and in the test on Mus musculus [6] were 3, 5 and 5, respectively. Moreover, the “Delta MST” value in the test on Mus musculus [10] was 1.8 days.
In the case of `CC1CNC(c2ccc(-c3nnc(-c4ccc(C5=NC(C)CN5)cc4)o3)cc2)=N1` (configuration not stated), the “Delta MST” value in the test with Mus musculus [14], in the test on Mus musculus [13] and in the test with Mus musculus [15] was “Toxic death” throughout.
Consider `N=C(N)c1ccc(OCCCCCOc2ccc(C(=N)N)cc2)cc1` [PENTAMIDINE], for which the Cures in the test on Mus musculus [1], with Mus musculus [7], in the test with Mus musculus [2], with Mus musculus [3], with Mus musculus [4] and in the test on Mus musculus [5] was 5 throughout. Further, the Cures with Mus musculus [10] is 1; in the test on Mus musculus [11], 4; in the test with Mus musculus [24], 5; in the test with Mus musculus [6], 5.
For the compound `N=C(Nc1ccc(NC(=N)c2ccccc2)o1)c1ccccc1`, the Cures with Mus musculus [1], in the test on Mus musculus [7], with Mus musculus [2], in the test with Mus musculus [3], in the test on Mus musculus [4] and in the test on Mus musculus [5] was 5 each time. Further, the Cures with Mus musculus [10] worked out at 4; in the test on Mus musculus [11], 4; in the test with Mus musculus [24], 5; with Mus musculus [6] it was 5.
For the compound `Cl.Cl.c1cc(-c2cnc(-c3ccc(C4=NCCN4)cc3)o2)ccc1C1=NCCN1`, the results for the “Delta MST” value in the test with Mus musculus [17], with Mus musculus [18] and with Mus musculus [22] were 1.6 days, 0.4 days and 0.2 days, respectively.
Take `N=C(N)c1ccc(/C=C/c2ccc(C(=N)N)cc2)cc1` [STILBAMIDINE]: the Cures in the test with Mus musculus [1], in the test with Mus musculus [7], in the test with Mus musculus [2], in the test with Mus musculus [3], in the test on Mus musculus [4] and in the test with Mus musculus [5] was 5 throughout. In addition, the Cures in the test on Mus musculus [10] was found to be 2; with Mus musculus [11] it was 5; with Mus musculus [24], 5; in the test on Mus musculus [6] it was 5.
As for `CC1CNC(c2ccc(-c3cnc(-c4ccc(C5=NC(C)CN5)cc4)o3)cc2)=N1.Cl.Cl` (configuration not stated), the “Delta MST” value in the test on Mus musculus [16] is 6.8 days; in the test with Mus musculus [25], 2.4 days; in the test with Mus musculus [18], 5.2 days; in the test with Mus musculus [20], 1 days; in the test on Mus musculus [26], “Toxic death”; in the test with Mus musculus [22], 2.2 days.
On to `N=C(N)c1ccc(/C=C/c2ccc(C(=N)N)cc2O)cc1` [HYDROXYSTILBAMIDINE], for which the Cures in the test with Mus musculus [1], in the test on Mus musculus [7], with Mus musculus [2], in the test on Mus musculus [3], in the test on Mus musculus [4] and in the test on Mus musculus [5] was 5 throughout. For the same compound, the Cures with Mus musculus [10] is on record as 2; with Mus musculus [11], 5; in the test on Mus musculus [24], 5; in the test on Mus musculus [6], 5.

(Values after ChEMBL document CHEMBL1121442, “Synthesis and antitrypanosomal activity of some bis(4-guanylphenyl) five- and six-membered ring heterocycles” (1980).)
